Literature values in patent US7250518B2, “Nicotinamide acids, amides, and their mimetics active as inhibitors of PDE4 isozymes” (Pfizer Inc., priority 2001, dated 2007).
Read-outs that look alike come from different tables or passages of the source.

Key:
[1] = in vivo
[2] = test system: late reactions to inhaled allergen; settings: 9.5 days oral, 15 and 30 mg, bronchial asthma patients
[3] = test system: high-affinity rolipram binding site (Sr)
PDE4 in U937 cells = settings: read-out: IC50 as PDE4 inhibitor in U937 cells
[4] = rat
[5] = rat; remark: listed apart in the source
[6] = 54 subjects, doses up to 400 mg
[7] = test system: antigen-induced eosinophilia; settings: rat
rhinorrhea = settings: antigen-challenged pig
[8] = test system: bronchoconstriction, BAL eosinophilia, AHR; settings: in vivo
guinea-pig lung PDE4 = settings: read-out: IC50 against guinea-pig lung PDE4
[9] = test system: antigen-induced bronchoconstriction; settings: guinea-pig
[10] = test system: TNF release and lymphocyte proliferation; settings: oral dose of 300 mg
TNF production = settings: read-out: IC50 as an inhibitor of TNF production
canine tracheal PDE4 = settings: at 100 nM
[11] = test system: PDE4 derived from tumor cells; settings: read-out: IC50 against a PDE4 derived from tumor cells
[12] = test system: histamine- and antigen-induced bronchoconstriction, eosinophilia, AHR; settings: guinea-pig
[13] = test system: dextran sulfate induced colitis; settings: rat
rheumatoid arthritis = settings: 35 patients, t.i.d., placebo-controlled
[14] = test system: antigen-induced lung eosinophilia, BAL eosinophilia, AHR; settings: guinea-pig
[15] = test system: antigen-induced bronchospasm; settings: rat
epidermal basal cells = settings: primary culture
[16] = test system: keratomed psoriatic epidermis; settings: over controls
psoriatic lesions = settings: two double-blind studies versus vehicle
[17] = test system: in vitro guinea-pig models of asthma; settings: read-out: IC50 in standard in vitro guinea-pig models of asthma
[18] = COPD patients, 15 mg b.i.d., week 6
[19] = oral 5, 10, and 15 mg b.id., week 2
[20] = test system: seratonin-induced bronchoconstriction; settings: dog
inflammatory parameters = settings: topical, bilaterally over eight days, twenty patients
[21] = test system: lipopolysaccharide-induced bowel erythrocyte extravasation; settings: rats, i.p. 3× pretreatment
[22] = test system: lipopolysaccharide-induced mesenteric blood flow fall; settings: inhibiting lipopolysaccharide-induced mesenteric blood flow fall
[23] = test system: human peripheral blood mononuclear cells (HPBM); settings: normal patients and subjects with atopic dermatitis
[24] = test system: bone mineral density of femurs; settings: serial oral administrations
TNF-α and IL-6 levels = settings: 1 mg/kg/hr over 24 hours
[25] = test system: PHA stimulated atopic dermatitis PBMC; settings: read-out: IC50, inhibition of PHA stimulated atopic dermatitis PBMC proliferation
[26] = test system: PHA stimulated normal PBMC; settings: read-out: IC50, inhibition of PHA stimulated normal PBMC proliferation
[27] = test system: croton oil-induced ear inflammation; settings: mouse
[28] = test system: collagen II induced arthritis
[29] = test system: T-cell mediated hepatic failure
[30] = test system: experimental allergic encephalomyelitis; settings: marmoset
[31] = test system: chronic relapsing experimental allergic encephalomyelitis; settings: SJL mice

SMILES: O=C(Nc1c(Cl)cncc1Cl)C(=O)c1cn(Cc2ccc(F)cc2)c2ccc(O)cc12 [AWD-12,281]
- Activity in a rat model of allergic rhinitis (allergic rhinitis): active

SMILES: Nc1nc2c([nH]1)c(=O)n(CC1CC1)c(=O)n2CC1CC1 [BRL-61,063]
- Emesis, nausea and vomiting [1]: adverse events of nausea and vomiting

SMILES: COc1ccc([C@H](Cc2ccncc2)c2ccccc2)cc1OC1CCCC1 [CDP840]
- Effect on late reactions to inhaled allergen [2]: suppression of late reactions to inhaled allergen
- Emesis, nausea and vomiting [1]: without any adverse events of nausea or headache
- Affinity at the Sr [3]: comparatively low affinity

SMILES: Cc1cc2c3c(c1)C(c1ccccc1)=N[C@@H](NC(=O)c1ccncc1)C(=O)N3CC2 [CI-1018]
- IC50 (PDE4 in U937 cells): 1100 nM
- Oral bioavailability [4]: 57%
- ED50, oral potency [5]: 5 mg/kg
- Adverse events [6]: no adverse events
- Inhibition of antigen-induced eosinophilia [7]: active

SMILES: COc1ccc(C2CNC(=O)NC2)cc1O[C@H]1C[C@@H]2CC[C@H]1C2 [CP-80,633]
- Emesis, nausea and vomiting [1]: elicit emesis
- Affinity at the Sr [3]: high affinity

SMILES: CCCn1c(=O)c2c(C)nc(CC)n2c2nc(OC)ccc21 [Example D-22888]
- Effect on rhinorrhea (rhinorrhea): inhibit rhinorrhea

SMILES: CCOc1cc2cc(CO)c(CO)c(-c3ccn(CCOC)c(=O)c3)c2cc1OCC [Example T-440]
- Inhibition of early and late phase bronchoconstriction, BAL eosinophilia, ozone-induced AHR and airway epithelial injury [8]: activity

SMILES: CCOc1cc2cc(CO)c(CO)c(-c3ccnc(-n4nc(-c5cccnc5)c5ccccc5c4=O)c3)c2cc1OCC [Example T-2585]
- IC50 (guinea-pig lung PDE4): 0.13 nM

SMILES: CCNc1ncn(Cc2ccc(OC)c(OC3CCCC3)c2)c2nc(C(C)C)nc1-2 [Example V-11294A]
- Inhibition of antigen-induced bronchoconstriction [9]: active
- Effect on LPS-stimulated ex vivo TNF release and PHA induced lymphocyte proliferation [10]: effective in reducing TNF levels and lymphocyte proliferation

SMILES: COc1ccc(C(CC(N)=O)N2C(=O)c3ccccc3C2=O)cc1OC1CCCC1 (stereo not shown) [Formula (0.0.32)]
- IC50 (PDE4; read-out: IC50 as an inhibitor of PDE4): 0.042 nM
- IC50 (TNF production): 130 nM

SMILES: COc1ccc(-c2nc3cnccc3o2)c2c1OC1(CCCC1)C2 [Formula (0.0.48)]
- IC50 (PDE4; read-out: IC50 as PDE4 inhibitor): 2.5 nM

SMILES: COc1ccc(C(=O)Cc2c(Cl)c[n+]([O-])cc2Cl)c2c1OCCCCO2 [Formula (0.0.49)]
- Inhibition of canine tracheal PDE4 (canine tracheal PDE4): almost complete inhibition

SMILES: Clc1nc2c(N3CCCC3)nc(N3CCNCC3)nc2nc1NCc1ccccc1 [Formula (0.0.55)]
- IC50 [11]: 16 nM
- Concentrations inhibiting the growth of tumor cells (tumor cells): micromolar concentrations

SMILES: O=c1c2[nH]cnc2c2cccnc2n1-c1ccccc1 [KF17625]
- Inhibition of histamine- and antigen-induced bronchoconstriction, PAF- and antigen-induced eosinophilia, AHR, bronchospasm [12]: activity

SMILES: O=c1c2c(ncn2Cc2cccnc2)c2cccnc2n1-c1ccccc1 [KF19514]
- Inhibition of histamine- and antigen-induced bronchoconstriction, PAF- and antigen-induced eosinophilia, AHR, bronchospasm [12]: activity

SMILES: CCCn1c(=O)c2[nH]cnc2n(-c2ccc(Cl)cc2)c1=O [LAS31025]
- Effect in dextran sulfate induced colitis [13]: beneficial effects comparable to prednisolone

SMILES: CCCn1c(=O)c2[nH]cnc2n(-c2ccc(Cl)cc2)c1=O [LAS-31025]
- Inhibition of antigen-induced bronchoconstriction [9]: active

SMILES: COc1ccc(C(=O)Nc2c(Cl)cncc2Cl)cc1OC1CCCC1 [RP73401]
- Clinical effect in rheumatoid arthritis (rheumatoid arthritis): positive trend towards clinical improvement

SMILES: COc1ccc(C(=O)Nc2c(Cl)cncc2Cl)cc1OC1CCCC1 [RP-73,401]
- Inhibition of antigen-induced lung and BAL eosinophilia, EPO, PAF- and ozone-induced AHR, IL-5 induced pleural eosinophila [14]: active
- Emesis, nausea and vomiting [1]: elicit emesis
- Affinity at the Sr [3]: high affinity

SMILES: COc1ccc(CNc2c(C)noc2C)cc1OC1CCCC1 [RPR-132294]
- Inhibition of antigen-induced bronchospasm [15]: activity

SMILES: O=c1c2cccnc2n(-c2cccc([N+](=O)[O-])c2)c(=O)n1Cc1ccncc1 [RS-23,544]
- Emesis, nausea and vomiting [1]: elicit emesis
- Affinity at the Sr [3]: high affinity

SMILES: COc1ccc(CC2CNC(=O)N2)cc1OC1CCCC1 (stereo not shown) [Ro 20-1724]
- Increase in cAMP concentrations (epidermal basal cells): three-fold
- Increase in cAMP concentration [16]: 1395%
- Effect on psoriatic lesions (psoriatic lesions): improve psoriatic lesions without adverse systemic or cutaneous effects

SMILES: O=C(Nc1c(Cl)cncc1Cl)c1ccc(OC(F)F)c(OCC2CC2)c1 [Roflumilast]
- IC50 [17]: 3.5 nM

SMILES: COc1ccc([C@]2(C#N)CC[C@@H](C(=O)O)CC2)cc1OC1CCCC1 [SB-207,499]
- Improvement in trough FEV1 [18]: 11%
- Maximum mean difference in trough FEV1 compared with placebo [18]: 160 mL
- Change in trough FEV1 from placebo [19]: significant increases
- Affinity at the Sr [3]: comparatively low affinity

SMILES: COc1ccc(/C(C)=N/OC(N)=O)cc1OC1CCCC1 [WAY-PDA-641]
- Inhibition of seratonin-induced bronchoconstriction [20]: active

SMILES: COc1ccc(C2CNC(=O)NC2)cc1O[C@H]1C[C@@H]2CC[C@H]1C2 [atizoram]
- Effect on inflammatory parameters (inflammatory parameters): effectively inhibit all of the inflammatory parameters tested

SMILES: CCCCn1c(=O)c2c(ncn2CC(C)=O)n(CCCC)c1=O [debufylline]
- Effect on lipopolysaccharide-induced bowel erythrocyte extravasation [21]: reduces

SMILES: CCCCn1c(=O)c2c(ncn2CC(C)=O)n(CCCC)c1=O [denbufylline]
- Potency relative to pentoxifylline [22]: 100 fold
- Inhibition of the proliferation of HPBM [23]: concentration-related inhibition
- Effect on bone mineral density of femurs [24]: inhibit the decrease in the bone mineral density

SMILES: CC(=O)CCCCn1c(=O)c2c(ncn2C)n(C)c1=O [pentoxifylline]
- IL-6 levels (TNF-α and IL-6 levels): significantly increased
- TNF-α levels (TNF-α and IL-6 levels): significantly lowered
- Effect on lipopolysaccharide-induced bowel erythrocyte extravasation [21]: reduces

SMILES: COc1ccc(C2CNC(=O)C2)cc1OC1CCCC1 (stereo not shown) [rolipram]
- IC50 [25]: 280 nM
- IC50 [26]: 2600 nM
- Topical dose inhibiting croton oil-induced ear inflammation [27]: ≥ 0.03 mg per ear
- Effect on appearance of arthritic symptoms ([28]; 2 mg/kg twice daily for five days before onset of arthritis): significantly delayed the appearance of arthritic symptoms
- Effect on development of the disease ([28]; 3 mg/kg twice daily when arthritis was apparent): progression of severity was halted
- Inhibition of the proliferation of HPBM [23]: concentration-related inhibition
- Effect in dextran sulfate induced colitis [13]: beneficial effects comparable to prednisolone
- Effect on lipopolysaccharide-induced bowel erythrocyte extravasation [21]: reduces
- IL-10 levels ([29]; 0.1 to 10 mg/kg i.p.): significantly elevates
- Plasma activities of liver enzymes ALT, AST, and SDH ([29]; 0.1 to 10 mg/kg i.p.): dose-dependently inhibited
- Plasma TNF-α and INF-γ concentrations ([29]; 0.1 to 10 mg/kg i.p. 30 minutes before concanavalin A or staphylococcal enterotoxin B): significantly reduce
- Effect on clinical signs [30]: suppress the appearance of clinical signs
- Effect on clinical signs and pathological changes [31]: ameliorates clinical signs and pathological changes
